Data set [1] concerns HER2. Kind of data set: HER2 degradation in BT-474 cells (Example 3, Western blot / in-cell imaging). It counts as cell-based, human. As to conditions: BT-474 cells; for IC50: Homo sapiens, read-out: HER2 (IC50). On the technique in general: In western blotting, separated proteins are transferred to a membrane and probed.
Protocol: BT-474 cells are plated in the interior 60 wells of a 96 well black clear bottom plate (20,000 cells/well) in DMEM medium, with DMEM media in the surrounding 36 wells, and incubated at 37° C. with 5% CO2 overnight. On the second day, concentration response curve source plates are produced (10 point, 3-fold dilution of compounds in DMSO) followed by a 1:30 dilution in an intermediate dilution plate containing DMEM. Compound is transferred from the intermediate plate to the cell plate at a dilution of 1:10.
Cells are then fixed in 4% phosphate-buffered paraformaldehyde for 30 minutes at room temperature and then permeabilized by washing five times with 0.1% Triton X-100 in PBS for 5 minutes at room temperature on a shaker. […] Cells are washed 5 times with 0.1% Tween-20 in PBS for 5 minutes at room temperature on a shaker and imaged on a LI-COR Odyssey imaging station. The raw data is normalized to DRAQ5 and the HER2 EC50 is calculated using XLfit™.
The test system of data set [2] is HER2. Kind of data set: HER2 degradation assay with BT-474 cell line (Example 12, FACS). Format: cell-based. As to conditions: Homo sapiens.
Another data set can be described thus: in vivo. Conditions: mouse.
Data set [3] is described as follows: Tissue distribution of SDC-TRAPs in tumor-bearing mice: plasma, tumor, heart (Examples 14-15). As to conditions: mouse, in vivo.
Protocol: (§1) Tissue Distribution Extraction Procedure for SDC-TRAP Tumor Samples
(§2) A 150 ng/mL solution of SDC-TRAP-0002 in methanol was prepared using an internal spiking solution (500 μg/mL SDC-TRAP-0002 in DMSO). Using the 10 mM stock solutions of the SDC-TRAP molecule and its Hsp90i binding moiety and effector moiety in DMSO, spiking solutions were prepared at 0.025, 0.05, 0.1, 0.5, 1, 5, 10, 50, 100, 250, and 500 μM in DMSO. 5 μL of each spiking solution was added to a 96-deep well plate.
(§3) Quality control standards were prepared from 5 μL of 0.1, 1, and 10 μM calibration standard spiking solution added in triplicate into 96-deep well plate and adding 50 μL of matrix (plasma or homogenized tumor).
(§4) To prepare test samples, test plasma was diluted as needed using blank plasma. Tumor samples were pulverized in liquid nitrogen, weighed, and homogenized in PBS at 5× volume to sample weight. 50 μL of unknown plasma or homogenized tumor sample was mixed with 5 μL of DMSO. The samples were extracted by precipitating calibration standards, QC standards, and unknown samples with 200 μL of internal standard solution. The samples were mixed by vortex at room temperature for approximately 1.5 minutes, then centrifuge at 2-8° C. 150 μL of supernatant was collected and 25 μL of water added. Samples were mixed and analyzed by LC-MS/MS.
(§5) Samples of plasma, heart and tumor were excised from a euthanized mouse, homogenized in PBS at 5 times tissue weight and diluted in 5 μL DMSO/50 μL sample. Prior to analysis, 55 μL samples and calibration standards were precipitated in 200 μL methanol in 96-well plates. Samples were mixed on a vortex mixer for 1.5 minutes at 1500 rpm at room temperature, then centrifuged at 4400 rpm for 10 minutes at 8° C. 150 μL of each supernatant was transferred to a well of a new 96-well plate, and 25 μL of water was added and mixed with the sample. […] For the analysis of samples from female SCID mice, a gradient of solvent A (water/0.1% formic acid) and B (acetonitrile/0.1% formic acid) was used as in Table A below.
[4] abbreviates: BT-474, SDC-TRAPs of the 41st table.

Broadly, the IC50 is the concentration that inhibits the measured activity by half. As usually defined, the Kp is tissue or fluid exposure divided by exposure in the circulation.

Protocol for in vivo: as §1, §2, §3, §4, §5

On to `C=CCNC1=C2C[C@@H](C)C[C@H](OC)[C@H](O)[C@@H](C)/C=C(\C)[C@H](OC(N)=O)[C@@H](OC)/C=C\C=C(/C)C(=O)NC(=CC1=O)C2=O` [17-AAG, reference compound], for which the “degradation of HER2” value in the data set on HER2 [1] (overnight, 17-AAG at 0.5 μM) is recorded as “partial degradation of HER2”.
For `CC(C)c1cc(-c2nnc(O)n2-c2ccc3c(ccn3CCOCCNC(=O)CCCC(=O)Nc3cccc4c3CN(C3CCC(=O)NC3=O)C4=O)c2)c(O)cc1O` (centres unmarked) [SDC-TRAP-0015, N1-(2-(2-(5-(3-(2,4-dihydroxy-5-isopropylphenyl)-5-hydroxy-4H-1,2,4-triazol-4-yl)-1H-indol-1-yl)ethoxy)ethyl)-N5-(2-(2,6-dixopiperidin-3-yl)-1-oxoisoindolin-4-yl)glutaramide], the IC50 in the data set on HER2 [1] and with HER2 [2] (BT-474 cells) was 2.35 µM each time.
For the compound `CC(C)c1cc(-c2nnc(O)n2-c2ccc3c(ccn3CCC(=O)Nc3cccc4c3CN(C3CCC(=O)NC3=O)C4=O)c2)c(O)cc1O` (centres unmarked) [SDC-TRAP-0017, 3-(5-(3-(2,4-dihydroxy-5-isopropylphenyl)-5-hydroxy-4H-1,2,4-triazol-4-yl)-1H-indol-1-yl)-N-(2-(2,6-dioxopiperidin-3-yl)-1-oxoisoindolin-4-yl)propanamide], the values for the IC50 in the data set on HER2 [1] and with HER2 [2] (BT-474 cells) were greater than 5 µM and greater than 10 µM, respectively.
The corresponding values for `CC(C)c1cc(-c2nnc(O)n2-c2ccc3c(ccn3CCN(C)C(=O)CCCC(=O)Nc3cccc4c3CN(C3CCC(=O)NC3=O)C4=O)c2)c(O)cc1O` (centres unmarked) [SDC-TRAP-0018, N1-(2-(5-(3-(2,4-dihydroxy-5-isopropylphenyl)-5-hydroxy-4H-1,2,4-triazol-4-yl)-1H-indol-1-yl)ethyl)-N5-(2-(2,6-dioxopiperidin-3-yl)-1-oxoisoindolin-4-yl)-N1-methylglutaramide] are greater than 5 µM and 8.21 µM.
Consider `CC(C)c1cc(-c2nnc(O)n2-c2ccc3c(ccn3CCN(C)C(=O)c3ccc(CCc4c[nH]c5nc(N)[nH]c(=O)c45)cc3)c2)c(O)cc1O` [SDC-TRAP-0019, 4-(2-(2-amino-4-oxo-4,7-dihydro-3H-pyrrolo[2,3-d]pyrimidin-5-yl)ethyl)-N-(2-(5-(3-(2,4-dihydroxy-5-isopropylphenyl)-5-hydroxy-4H-1,2,4-triazol-4-yl)-1H-indol-1-yl)ethyl)-N-methylbenzamide], for which the IC50 in the data set on HER2 [1] and in the data set on HER2 [2] (setting [4]) was 4.42 µM in each case.
As for `CC(C)c1cc(-c2nnc(O)n2-c2ccc3c(ccn3CCOCCNC(=O)c3ccc(CCc4c[nH]c5nc(N)[nH]c(=O)c45)cc3)c2)c(O)cc1O` [SDC-TRAP-0020, 4-(2-(2-amino-4-oxo-4,7-dihydro-3H-pyrrolo[2,3-d]pyrimidin-5-yl)ethyl)-N-(2-(2-(5-(3-(2,4-dihydroxy-5-isopropylphenyl)-5-hydroxy-4H-1,2,4-triazol-4-yl)-1H-indol-1-yl)ethoxy)ethyl)benzamide], the IC50 in the data set with HER2 [1] and in the data set with HER2 [2] (setting [4]) was greater than 5 µM throughout.
As to `CC(C)c1cc(-c2nnc(O)n2-c2ccc3c(ccn3CCN(C)C(=O)NCC(=O)Nc3cccc4c3CN(C3CCC(=O)NC3=O)C4=O)c2)c(O)cc1O` (centres unmarked) [SDC-TRAP-0021, 2-(3-(2-(5-(3-(2,4-dihydroxy-5-isopropylphenyl)-5-hydroxy-4H-1,2,4-triazol-4-yl)-1H-indol-1-yl)ethyl)-3-methylureido)-N-(2-(2,6-dioxopiperidin-3-yl)-1-oxoisoindolin-4-yl)acetamide], the IC50 in the data set on HER2 [1] and with HER2 [2] (BT-474 cells) was greater than 5 µM in each case.
In the case of `CCc1c2c(nc3ccc(OCC(=O)NCCn4ccc5cc(-n6c(O)nnc6-c6cc(C(C)C)c(O)cc6O)ccc54)cc13)-c1cc3c(c(=O)n1C2)COC(=O)C3(O)CC` (centres unmarked) [SDC-TRAP-0023, 2-((4,11-diethyl-4-hydroxy-3,14-dioxo-3,4,12,14-tetrahydro-1H-pyrano[3′,4′:6,7]indolizino[1,2b]quinolin-9-yl)oxy)-N-(2-(5-(3-(2,4-dihydroxy-5-isopropylphenyl)-5-hydroxy-4H-1,2,4-triazol-4-yl)-1H-indol-1-yl)ethyl)acetamide], the IC50 in the data set on HER2 [1] stood at 4.3 µM; in the data set on HER2 [2] (BT-474, SDC-TRAPs of the 43rd table) it was 4.3 µM.
On to `CC(C)c1cc(-c2nnc(O)n2-c2ccc3c(ccn3CCOC(=O)Nc3nc(=O)[nH]cc3F)c2)c(O)cc1O` [SDC-TRAP-0025, 2-(5-(3-(2,4-dihydroxy-5-isopropylphenyl)-5-hydroxy-4H-1,2,4-triazol-4-yl)-1H-indol-1-yl)ethyl (5-fluoro-2-oxo-1,2-dihydropyrimidin-4-yl) carbamate], for which the IC50 is 0.395 µM with HER2 [1] and 0.403 µM in the data set with HER2 [2] (BT-474, SDC-TRAPs of the 52nd table).
Regarding `CCc1c2c(nc3ccc(O)cc13)-c1cc3c(c(=O)n1C2)COC(=O)C3(CC)OC(=O)CN1CCN(c2ccc(-n3c(O)nnc3-c3cc(C(C)C)c(O)cc3O)cc2)CC1` (centres unmarked) [SDC-TRAP-0056, 4,11-diethyl-9-hydroxy-3,14-dioxo-3,4,12,14-tetrahydro-1H-pyrano[3′,4′:6,7]indolizino[1,2-b]quinolin-4-yl 2-(4-(4-(3-(2,4-dihydroxy-5-isopropylphenyl)-5-hydroxy-4H-1,2,4-triazol-4-yl)phenyl)piperazin-1-yl)acetate], the Kp in the data set “in vivo” (Tumor/Plasma Ratio, Tissue Distribution Data for SDC-TRAP-0056, time 6 h) was 1.28; in “in vivo” (Tumor/Plasma Ratio, Tissue Distribution Data for SDC-TRAP-0056, time 12 h), 1.95; in the data set “in vivo” (Tumor/Plasma Ratio, Tissue Distribution Data for SDC-TRAP-0056, time […]), 0.00525.
In data set [3], `COc1ccc(-c2cnoc2-c2cc(OC)c(OC)c(OC)c2)cc1OC(=O)N1CCN(Cc2ccc(-n3c(O)nnc3-c3cc(C(C)C)c(O)cc3O)cc2)CC1` [SDC-TRAP-0098, 2-Methoxy-5-(5-(3,4,5-trimethoxyphenyl)isoxazol-4-yl)phenyl-4-(4-(3-(2,4-dihydroxy-5-isopropylphenyl)-5-hydroxy-4H-1,2,4-triazol-4-yl)benzyl)piperazine-1-carboxylate] showed a Kp at 1 h of 0.62, a Kp at 6 h of 8.22, a Kp at 24 h of 300 and a Kp at […] of 0.01.
In turn, `CC(C)c1cc(-c2nnc(O)n2-c2ccc(CC3CCN(CC(=O)Nc4cccc5c4CN(C4CCC(=O)NC4=O)C5=O)CC3)cc2)c(O)cc1O` (centres unmarked) [SDC-TRAP-0116, 2-(4-(4-(3-(2,4-dihydroxy-5-isopropylphenyl)-5-hydroxy-4H-1,2,4-triazol-4-yl)benzyl)piperidin-1-yl)-N-(2-(2,6-dioxopiperidin-3-yl)-1-oxoisoindolin-4-yl)acetamide] returned an IC50 in the data set with HER2 [2] (BT-474 cells) of 0.967 µM. For the same compound, in “in vivo” (Plasma Conc.), the concentration at 1 h was 65200 nM, the concentration at 6 h is 595 nM, the concentration at 24 h was determined as 11.1 nM and the concentration at 48 h came to 31.5 nM. For the same compound, in the data set “in vivo” (Tumor/Plasma Ratio), the Kp at 1 h came out at 0.21, the Kp at 6 h was 10.2, the Kp at 24 h came out at 251 and the Kp at 48 h worked out at 46.5. The Kp at […] in “in vivo” (Tumor/Plasma Ratio) is 0.03.
`CCNC(=O)c1nnc(-c2cc(C(C)C)c(O)cc2O)n1-c1ccc(Oc2ccc(C(=O)N3CCC(C(=O)OC4(CC)C(=O)OCc5c4cc4n(c5=O)Cc5c-4nc4ccc(O)cc4c5CC)CC3)cc2)cc1` (centres unmarked) [SDC-TRAP-0154, 4,11-Diethyl-9-hydroxy-3,14-dioxo-3,4,12,14-tetrahydro-1H-pyrano[3′,4′:6,7]indolizino[1,2-b]quinolin-4-yl 1-(4-(4-(3-(2,4-dihydroxy-5-isopropylphenyl)-5-(ethylcarbamoyl)-4H-1,2,4-triazol-4-yl)phenoxy)benzoyl)piperidine-4-carboxylate]: the Kp in “in vivo” (Tumor/Plasma Ratio, Tissue Distribution Data for SDC-TRAP-0154, time 1 h) is 0.06; in “in vivo” (Tumor/Plasma Ratio, Tissue Distribution Data for SDC-TRAP-0154, time 6 h), 1.86; in the data set “in vivo” (Tumor/Plasma Ratio, Tissue Distribution Data for SDC-TRAP-0154, time 24 h), 11.9; in the data set “in vivo” (Tumor/Plasma Ratio, Tissue Distribution Data for SDC-TRAP-0154, time 48 h) it was 86; in “in vivo” (Tumor/Plasma Ratio, Tissue Distribution Data for SDC-TRAP-0154, time […]) it was 0.01.
Take `CC(C)c1cc(-c2nnc(O)n2-c2ccc(CN3CCN(C(=O)Oc4ccc(COC(=O)Nc5cccc6c5CN(C5CCC(=O)NC5=O)C6=O)cc4)CC3)c(F)c2)c(O)cc1O` (centres unmarked) [SDC-TRAP-0171, 4-((((2-(2,6-dioxopiperidin-3-yl)-1-oxoisoindolin-4-yl)carbamoyl)oxy)methyl)phenyl-4-(4-(3-(2,4-dihydroxy-5-isopropylphenyl)-5-hydroxy-4H-1,2,4-triazol-4-yl)-2-fluorobenzyl)piperazine-1-carboxylate]: in data set [3], the Kp at 1 h was found to be 0.249, the Kp at 6 h was 3.1, the Kp at 24 h was 407 and the partition ratio (Kp) at […] was 0.0164. Also, in data set [3], the concentration at 1 h came out at 32200 nM, the concentration at 6 h came out at 1210 nM and the concentration at 24 h amounted to 1.62 nM.
With `CCNC(=O)c1nnc(-c2cc(C(C)C)c(O)cc2O)n1-c1ccc(CN2CCC(C(=O)N3CCN(c4cc(C)c(OC(=O)Nc5cccc6c5CN(C5CCC(=O)NC5=O)C6=O)c(C)c4)CC3)CC2)cc1` (centres unmarked) [SDC-TRAP-0195, 4-(4-(1-(4-(3-(2,4-dihydroxy-5-isopropylphenyl)-5-(ethylcarbamoyl)-4H-1,2,4-triazol-4-yl)benzyl)piperidine-4-carbonyl)piperazin-1-yl)-2,6-dimethylphenyl (2-(2,6-dioxopiperidin-3-yl)-1-oxoisoindolin-4-yl)carbamate], in data set [3], the Kp at 1 h was found to be 0.109, the Kp at 6 h was found to be 2.36, the Kp at 24 h worked out at 5.5 and the Kp at […] was 0.014. In data set [3], the concentration at 1 h stood at 211000 nM, the concentration at 6 h worked out at 7230 nM and the concentration at 24 h amounted to 2030 nM.

Source of the values: patent publication US9956293B2, “Targeted therapeutics” (Madrigal Pharmaceuticals, Inc., priority 2014, dated 2018).
